Test results published in publication PMC5328764 (Physiological Reports, 2017).
Blank lines part the entries; values can stand above or below the molecule they belong to.

Assays:
healthy volunteers [1] = assay: Cardiovascular measurements by task force monitor (heart rate, blood pressure, cardiac output, stroke volume); format: in vivo, human; settings: for Effect on heart rate (in words): s.c. GLP‐1 and GLP‐1 9–36amide 1.5 nmol/kg, exenatide 10 μg, 0–120 min, two‐way ANOVA, Tukey post hoc
Procedure: Cardiac parameters were continuously measured from time −15 to 120 min. The task force monitor (TFM; CN Systems, Graz, Austria) continuously measures the heart rate, blood pressure (by finger plethysmography), cardiac output (by impedance cardiography), and calculates stroke volume (SV). The continuous, beat‐to‐beat measuring of blood pressure was supplemented with the conventional noninvasive oscillometric blood pressure measurement. […] This was done to eliminate brief or short‐lasting changes in cardiac parameters due to accidental movement of the volunteer or slight disturbance during scanning.
(§1) Intravenous access was then established. […] Baseline measurements were made twice during the resting period.

[2] = Plasma concentrations of the test substances by radioimmunoassay after s.c. injection; settings: eight healthy volunteers
healthy volunteers [3] = assay: Doppler ultrasound blood flow in superior mesenteric artery, celiac trunk and renal artery (RI, TAMV); format: in vivo, human; settings: healthy volunteers n = 8, s.c. GLP‐1 and GLP‐1 9–36amide 1.5 nmol/kg, exenatide 10 μg, 0–120 min
Description: as §1

healthy volunteers [4] = assay: Plasma glucose after s.c. injection (glucose oxidase method); format: in vivo, human
Procedure: Plasma glucose was measured by the glucose oxidase method using a glucose analyzer (Yellow Springs Instrument, YSI Inc., Yellow Springs, OH).
as §1

healthy volunteers [5] = assay: Plasma pancreatic polypeptide (PP) after s.c. injection (radioimmunoassay); format: in vivo, human; settings: fasting healthy volunteers; s.c. GLP‐1 1.5 nmol/kg; due to excursions in a subset of participants
Description: as §1

healthy volunteers [6] = assay: Serum insulin and C‐peptide after s.c. injection (ECLIA); format: in vivo, human; settings: fasting healthy volunteers n = 8; for Effect on insulin and C‐peptide (in words): s.c. 1.5 nmol/kg, 0–120 min
Procedure: Plasma insulin and C‐peptide levels were measured on a Cobas® 8000, e602 module (Roche Diagnostics GmbH, Mannheim) using, respectively, Cobas Insulin reagents and Cobas Insulin Calibrator, and Cobas C‐Peptide reagents and Cobas C‐Peptide Calibrator. The Cobas module employs a sandwich electro‐chemiluminescense immunoassay (ECLIA).
as §1
Analyses of normally distributed data were conducted by two‐way ANOVA followed by Tukey post hoc testing if the ANOVA indicated significant differences between the study days.

[7] = healthy volunteers n = 8, supine

Molecule: CC[C@H](C)[C@H](NC(=O)[C@H](Cc1ccccc1)NC(=O)[C@H](CCC(=O)O)NC(=O)[C@H](CCCCN)NC(=O)[C@H](C)NC(=O)[C@H](C)NC(=O)[C@H](CCC(N)=O)NC(=O)CNC(=O)[C@H](CCC(=O)O)NC(=O)[C@H](CC(C)C)NC(=O)[C@H](Cc1ccc(O)cc1)NC(=O)[C@H](CO)NC(=O)[C@H](CO)NC(=O)[C@@H](NC(=O)[C@H](CC(=O)O)NC(=O)[C@H](CO)NC(=O)[C@@H](NC(=O)[C@H](Cc1ccccc1)NC(=O)[C@@H](NC(=O)CNC(=O)[C@H](CCC(=O)O)NC(=O)[C@H](C)NC(=O)[C@@H](N)Cc1c[nH]cn1)[C@@H](C)O)[C@@H](C)O)C(C)C)C(=O)N[C@@H](C)C(=O)N[C@@H](Cc1c[nH]c2ccccc12)C(=O)N[C@@H](CC(C)C)C(=O)N[C@H](C(=O)N[C@@H](CCCCN)C(=O)NCC(=O)N[C@@H](CCCNC(=N)N)C(N)=O)C(C)C [GLP‐1, glucagon‐like peptide‐1]
- Time of peak heart rate increase (healthy volunteers [1]; healthy volunteers n = 8, supine, s.c. GLP‐1 1.5 nmol/kg): 30 min
- Maximum increase in heart rate (healthy volunteers [1]; healthy volunteers n = 8, supine, s.c. GLP‐1 1.5 nmol/kg, peaking at 30 min): about 14 beats per min
- Effect on heart rate (in words) (healthy volunteers [1]; [7]): significantly increased heart rate
- Effect on cardiac output (in words) (healthy volunteers [1]; healthy volunteers n = 8, impedance cardiography, 120 min period, on the placebo day decrease by about 1 L/min): tended to rise
- Effect on stroke volume (in words) (healthy volunteers [1]; healthy volunteers n = 8, s.c. GLP‐1 1.5 nmol/kg, lower values at 15 and 30 min): appeared to fall more
- Time at which intact GLP‐1 reached basal levels ([2]; 1.5 nmol/kg GLP‐1 s.c.): around 90 min
- Total plasma GLP‐1 concentration, peak mean value on the GLP‐1 day ([2]; 1.5 nmol/kg GLP‐1 s.c., total = GLP‐1 7–36amide + 9–36amide, reached within 15 min, still elevated at 120 min, radioimmunoassay, mean): around 300 pmol/L
- Time of peak or plateau plasma concentration of the injected peptide (exendin‐4 or total GLP‐1 assay) ([2]; s.c., exenatide 10 μg, GLP‐1 and GLP‐1 9–36amide 1.5 nmol/kg): ≤ 15 min
- Changes in blood flow parameters in the mesenteric or renal arteries (healthy volunteers [3]): Neither GLP‐1, GLP‐1_9–36 amide, exenatide nor saline elicited any changes in blood flow parameters
- Plasma glucose nadir (healthy volunteers [4]; fasting healthy volunteers n = 8, s.c. 1.5 nmol/kg, from around 5 mmol/L, nadir at 30 min, mean): 3.5 mmol/L
- Time of plasma glucose nadir (healthy volunteers [4]; fasting healthy volunteers n = 8, s.c. GLP‐1 1.5 nmol/kg, exenatide 10 μg): 30 min
- Effect on plasma pancreatic polypeptide (PP) (in words) (healthy volunteers [5]): mean PP levels rose late
- Effect on insulin and C‐peptide (in words) (healthy volunteers [6]): caused a rise in insulin
- Time until which C‐peptide levels remained elevated (healthy volunteers [6]; s.c. GLP‐1 1.5 nmol/kg): 60 min
- Time of insulin peak (healthy volunteers [6]; s.c. GLP‐1 1.5 nmol/kg, exenatide 10 μg (for exenatide insulin and C‐peptide)): 15 min

- Time at which GLP‐1 9–36amide concentrations reached near basal levels ([2]; 1.5 nmol/kg GLP‐1 9–36amide s.c.): 120 min
- Plasma concentration of the metabolite GLP‐1 9–36amide (total GLP‐1 assay), peak ([2]; 1.5 nmol/kg GLP‐1 9–36amide s.c., at 30 min, radioimmunoassay, mean): about 290 pmol/L
Molecule: GLP‐1_9–36amide
- Effect on heart rate (in words) (healthy volunteers [1]; [7]): remained stable
- Changes in blood flow parameters in the mesenteric or renal arteries (healthy volunteers [3]): Neither GLP‐1, GLP‐1_9–36 amide, exenatide nor saline elicited any changes in blood flow parameters
- Effect on plasma glucose (in words) (healthy volunteers [4]; fasting healthy volunteers n = 8, s.c. exenatide 10 μg, GLP‐1 9–36amide 1.5 nmol/kg, 0–120 min): Neither saline nor the metabolite, GLP‐1_9–36amide influenced plasma glucose levels
- Effect on insulin and C‐peptide (in words) (healthy volunteers [6]): no significant changes
